# Read-outs that look alike come from different tables or passages of the source.
# Columns and labels:
# 6-AmHap-Abs [1] = format: binding, mouse; conditions: for Ki: read-out: Heterologous MST Ki; for IC50: read-out: Heterologous MST IC50
# Experimental: The final concentrations of 6-AmHap-Abs, MorHap-Cy5 in the capillaries were 10 nM and 0.25 nM, respectively. The same procedure was performed for the binding of the 6-AmHap-Abs to the other drugs but different concentrations of competitor working solutions were used.
# For the heroin-binding assay in the presence of esterase inhibitors, a working solution containing 6-AmHap antibody (40 nM) and 80 μM iso-OMPA/80 μM BNPP was incubated for 2 h at RT. An equal volume of MorHap-Cy5 (1 nM) was then mixed with the 6-AmHap-Abs/iso-OMPA/BNPP mixture and the reaction mixture was further incubated for 20 min in the dark at RT. The rest of the procedure was performed as described above. The final concentrations of 6-AmHap-Abs, iso-OMPA/BNPP, and MorHap-Cy5 in the capillaries were 10 nM, 20 μM/20 μM, and 0.25 nM, respectively.
# (§1) The MST measurements were done on a Monolith™ NT.115^Pico instrument from NanoTemper Technologies GmbH. The instrument was equipped with an IR laser (wavelength, 1475 ± 15 nm; power, 120 mW maximum) and a red fluorescence channel that can detect red dyes, such as Cy5 and Alexa Fluor 647. The samples were measured at an LED power of 20% and an MST power of 25% with a laser-on time of 30 s and a laser-off time of 5 s. MST measurements of 15–16 samples typically take ~ 20 min.
# In the competition MST procedures, a constant concentration of MorHap-Cy5:antibody complex was titrated with an increasing concentration of drug competitor. […] The software plots Fnorm against 15–16 increasing drug competitor concentration points to yield the binding curve, and subsequently fits the curve to obtain the IC50. For presentation purposes, the fraction bound was manually calculated and plotted using the equation above where x is the Fnorm at a given competitor concentration. The binding affinities (Ki) from the heterologous MST assays were then derived using the Ki-Finder software from the Nanotemper website. In order to calculate the Ki, the following parameters must be entered into the Ki-Finder website: the binding affinity of the tracer against the antibody (Kd), the concentration of the antibody (I0), the concentration of the tracer (labeled T0), the highest concentration of the competitor (L0), and the IC50 of the competitor to the antibody. The website then plots both the binding curve and competition curve to produce the competitor Ki, also known as the Kd of the antibody to the drug competitor.
# 6-AmHap-Abs [2] = format: binding, mouse; conditions: read-out: Kd of 6-AmHap-Abs derived from ED-UPLC/MS/MS; post-immune serum diluted 1:1600, 5 nM D3-tracer
# Experimental: Post-immune sera (week 8) from the mouse study described by Sulima et al. [12] were used in this study. […] Briefly, post-immune serum was diluted in DPBS (1:1600). Dialysis buffer was prepared by diluting the corresponding pre-immune serum (week 0) in DPBS (1:1600). […] A 100-μL dilution of week 8 serum containing 5 nM D3-tracer was pipetted into the sample chamber, and a 300-μL aliquot of the competitive inhibitor solution was added to the buffer chamber. Both week 8 and week 0 were run against each other at the same sera dilutions. For negative controls, the same setup was employed except both sides of the dialysis chamber contained only week 0 serum. Equilibrium dialysis, preparation of samples for UPLC/MS/MS, and calculation of Kd were performed as described [13].
# The antibody binding site concentration was derived from Müller’s equation [17] and was calculated using the following formula: Abt=bTt+b×Kd/1−b where [Abt] is the total concentration of the antibody binding sites, b is the fraction of bound D3-tracer in the absence of competitive inhibitor, [Tt] is the total molar concentration of the D3-tracer after equilibrium, and Kd is the apparent dissociation constant.
# 6-AmHap-Abs [3] = format: binding, mouse; conditions: read-out: Competition ELISA Heterologous, IC50
# 6-AmHap-Abs [4] = conditions: ref Sulima et al [3]; read-out: Competition ELISA Homologous, IC50; cited from earlier work
# [5] = degradation of heroin in humans, Fig. 1a; cited from earlier work
# [6] = molecular target: Anti-morphine antibody (ab1060); format: binding, mouse; conditions: 0.25 nM MorHap-Cy5, 10 nM ab1060, 4000 nM competitor
# Experimental: as §1
# In the competition MST procedures, a constant concentration of MorHap-Cy5:antibody complex was titrated with an increasing concentration of drug competitor. […] The software plots Fnorm against 15–16 increasing drug competitor concentration points to yield the binding curve, and subsequently fits the curve to obtain the IC50. For presentation purposes, the fraction bound was manually calculated and plotted using the equation above where x is the Fnorm at a given competitor concentration. The binding affinities (Ki) from the heterologous MST assays were then derived using the Ki-Finder software from the Nanotemper website. […]
# [7] = 0.25 nM MorHap-Cy5, 10 nM antibody binding sites, without esterase inhibitors, […]
# [8] = 0.25 nM MorHap-Cy5, 10 nM antibody binding sites, without esterase inhibitors
Compound,Ki (6-AmHap-Abs [1]; [7]),IC50 (6-AmHap-Abs [1]; [8]),IC50 (6-AmHap-Abs [3]),IC50 (6-AmHap-Abs [4]),other results
6-acetylmorphine [6-AM],0.44 ± 0.33 nM,6.75 ± 1.17 nM,19.8 ± 6.33 nM,3720 ± 700 nM,Kd (6-AmHap-Abs [2]): 0.53 ± 0.28 nM; t1/2 [5]: 0.367 to 0.433 h
"CN1CC[C@]23c4c5ccc(O)c4O[C@H]2[C@@H](O)C=C[C@H]3[C@H]1C5O (stereo partly drawn) [10-Hydroxymorphine, 10-hydroxymorphine]",18.4 ± 5.78 nM,51.2 ± 0.72 nM,,,
"CC(=O)Nc1ccccc1 [Acetanilide, acetanilide]",,,,,"Heterologous MST IC50 (6-AmHap-Abs [1]; [8]): No binding; Heterologous MST Ki (6-AmHap-Abs [1]; [7]): No binding; Heterologous MST Ki (6-AmHap-Abs [1]; 0.25 nM MorHap-Cy5, 10 nM antibody binding sites, without esterase inhibitors, […], listed as acetanilide): Neither acetanilide nor N-methylpiperidine bound"
"CN1CC[C@]23c4c5ccc(O)c4O[C@H]2CCC[C@H]3[C@H]1C5 [Desomorphine, desomorphine]",,,,,IC50 (6-AmHap-Abs [1]): 9.07 ± 0.73 nM; Ki (6-AmHap-Abs [1]): 0.9 ± 0.64 nM
"CN1CC[C@]23CCCC[C@H]2[C@H]1Cc1ccc(O)cc13 [Levorphanol, levorphanol]",11.6 ± 4.41 nM,33.7 ± 0.91 nM,341 ± 138 nM,3390 ± 900 nM,
"CN1CC[C@]23c4c5ccc(O[C@@H]6O[C@H](C(=O)O)[C@@H](O)[C@H](O)[C@H]6O)c4O[C@H]2[C@@H](O)C=C[C@H]3[C@H]1C5 [M-3G, morphine-3-β-glucuronide]",27.9 ± 4.14 nM,69.1 ± 1.24 nM,23.2 ± 7.33 nM,28000 ± 11400 nM,t1/2 [5]: 4.5 h
"CN1CC[C@]23c4c5ccc(O)c4O[C@H]2[C@@H](O[C@@H]2O[C@H](C(=O)O)[C@@H](O)[C@H](O)[C@H]2O)C=C[C@H]3[C@H]1C5 [M-6G, morphine-6-β-glucuronide]",0.66 ± 0.9 nM,5.88 ± 1.22 nM,11.3 ± 2.16 nM,25000 ± 12100 nM,t1/2 [5]: 4.60 h
CN1CC[C@]23c4c5ccc(O)c4O[C@H]2[C@H](NC(=O)CCSCC(N)=O)C=C[C@H]3[C@H]1C5 [MorHap-acetamide],,,,,Ki [6]: 14 ± 7.97 nM
"C[N+]1([O-])CC[C@]23c4c5ccc(O)c4O[C@H]2[C@@H](O)C=C[C@H]3[C@H]1C5 (stereo partly drawn) [Morphine N-Oxide, morphine N-oxide]",6460 ± 4780 nM,12651 ± 1.33 nM,,,
"CN1CCCCC1 [N-Methylpiperidine, N-methylpiperidine]",,,,,"Heterologous MST IC50 (6-AmHap-Abs [1]; [8]): No binding; Heterologous MST Ki (6-AmHap-Abs [1]; [7]): No binding; Heterologous MST Ki (6-AmHap-Abs [1]; 0.25 nM MorHap-Cy5, 10 nM antibody binding sites, without esterase inhibitors, […], listed as N-methylpiperidine): Neither acetanilide nor N-methylpiperidine bound"
"C=CCN1CC[C@]23c4c5ccc(O)c4O[C@H]2[C@@H](O)C=C[C@H]3[C@H]1C5 [Nalorphine, nalorphine]",2.93 ± 0.98 nM,10.6 ± 0.89 nM,,,
"Oc1ccc2c3c1O[C@H]1[C@@H](O)C=C[C@H]4[C@@H](C2)NCC[C@@]341 [Normorphine, normorphine]",55.1 ± 7.58 nM,136 ± 0.94 nM,3220 ± 2000 nM,112000 ± 22300 nM,
"CN1CC[C@]23c4c5ccc(O)c4O[C@H]2C(=O)CC[C@@]3(O)[C@H]1C5 [Oxymorphone, oxymorphone]",251 ± 7 nM,598.1 ± 0.95 nM,2430 ± 864 nM,125000 ± 28600 nM,
"COC1=CC=C2[C@H]3Cc4ccc(OC)c5c4[C@@]2(CCN3C)[C@H]1O5 [Thebaine, thebaine]",13.1 ± 5.47 nM,35.6 ± 0.91 nM,,,

# From article PMC5956019, “A rapid solution-based method for determining the affinity of heroin hapten-induced antibodies to heroin, its metabolites, and other opioids” (Analytical and Bioanalytical Chemistry, 2018)
